The test system of test [1] is ATP-induced IL-1β secretion in PBMCs. The experiment in a line: IL-1β ELISA in patient-derived PBMCs/monocytes (STEMI and controls). The settings on record: pre-incubated with 1 μmol/L compound. Format: cell-based, human. An excerpt:
The role of inflammation in cardiovascular disease processes was explored. Patients that were admitted to the Royal North Shore Hospital, Sydney, Australia for clinically indicated cardiac catheterisation were consented for the study. These patients were subdivided according to their clinical presentation: • 1. Patients presenting with STEMI, characterised by recent-onset chest pain, ECG changes and/or raised cardiac enzymes. • 2. Age and sex-matched control patients with no evidence of coronary stenosis on angiography.
Patients were excluded from the study if they were taking anti-inflammatory medications, or if they had clinical or biochemical evidence of active infection or inflammation.
20 mL of blood was collected from the arterial sheath into an EDTA-coated tube. Samples were immediately diluted 1:1 in phosphate buffered saline (PBS) and layered on top of Ficoll-Paque for gradient separation. Samples were centrifuged at […] for 15 minutes. […]
(§1) Changes in secreted and intracellular levels of IL-1β were measured by ELISA (RnD systems). Samples were diluted 1 in 2 in commercial diluent, assayed according to manufacturer's instructions and detected at 450/570 nm.
Peripheral blood mononuclear cells (PBMCs) were collected from 19 STEMI patients at the time of infarct, and 3 healthy controls. […] IL-1β levels were measured by ELISA.

The subject of test [2] is secreted IL-1β in THP-1 monocytic cells. In words: IL-1β dose-response testing in THP-1 monocytic cell line. The test is classed as cell-based. The settings on record: Homo sapiens; THP-1 treated with interferon-γ and lipopolysaccharide 3 hours, compound 1-1000 nM, ATP stimulation; read-out: LogEC50, secreted IL-1β (converted). As for the experimental part: Supernatant was collected to measure the level of secreted IL-1β.
Cells were plated in 48-well Corning cell-bind plates at 2×10^5 cells/well, and treated with recombinant human interferon-γ (10 ng/mL) and lipopolysaccharide (25 ng/mL) for 3 hours. […] Supernatant was collected to measure the level of secreted IL-1ß.
as §1

The target in the next test is T1, mP2X7R (Mus musculus, UniProt Q9Z1M0).
T1 construct: expressed in transfected cells; host or cells: HEK293T, G418-selected; gift from Dr Leanne Stokes and Prof; Jim Wiley
T1 sequence (Q9Z1M0 1-595): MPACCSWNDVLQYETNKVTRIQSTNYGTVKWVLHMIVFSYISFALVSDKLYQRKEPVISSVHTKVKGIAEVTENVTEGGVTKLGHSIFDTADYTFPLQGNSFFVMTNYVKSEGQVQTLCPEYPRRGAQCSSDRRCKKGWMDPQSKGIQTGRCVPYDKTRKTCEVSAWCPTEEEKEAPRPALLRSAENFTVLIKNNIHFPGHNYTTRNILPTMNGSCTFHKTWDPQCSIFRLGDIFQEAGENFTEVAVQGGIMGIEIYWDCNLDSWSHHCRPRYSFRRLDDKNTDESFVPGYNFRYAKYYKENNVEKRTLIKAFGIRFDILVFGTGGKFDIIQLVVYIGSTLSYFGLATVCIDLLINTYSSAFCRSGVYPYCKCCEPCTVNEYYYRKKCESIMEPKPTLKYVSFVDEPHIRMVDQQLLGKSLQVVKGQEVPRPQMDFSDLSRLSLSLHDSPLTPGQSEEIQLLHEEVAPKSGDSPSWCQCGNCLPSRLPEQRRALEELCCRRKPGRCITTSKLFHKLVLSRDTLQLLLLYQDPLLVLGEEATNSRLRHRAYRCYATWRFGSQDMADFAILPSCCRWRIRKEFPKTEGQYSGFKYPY
In words: Calcium influx assay in HEK-mP2X7 cells. Format: cell-based. The settings on record: HEK cells expressing mP2X7R, BzATP 100 μM; mean ± standard deviation, n >3. As for the experimental part: HEK293T cells transfected with cDNA for the human (HEK-hP2X7) or mouse P2X7 (HEK-mP2X7) receptor (a kind gift from Dr […] Stokes and Prof. Jim Wiley) were cultured in DMEM/F12 with 10% FBS and 500 μg/mL G418 (all from Invitrogen). […] HEK-hP2X7 or HEK-mP2X7 cells were harvested using trypsin (0.05%) with EDTA (0.03%). Cells were loaded with Fluo-4 AM (1 μM) in HBSS buffer at 37° C. for 30 min, inverting every 5 mins. […] Cells were resuspended a final time in assay buffer and seeded into black-walled 96 well clear-bottom plates at a density of 5×10^4 cells/well. […] Fluorescence was then monitored every 5 s for 5 min total monitoring. […] Data were normalized to the peak response seen with BzATP alone and the basal response seen due to injection of vehicle (see FIG. 3).

The values below come from US12668568B2, “Adamantanyl-substituted benzamide compounds and their use as P2X7 receptor antagonists” (The University of Sydney, priority 2018, dated 2026).

Molecules are shown by their SMILES.

In the case of `COc1ccc(Cl)c(C(=O)NCC23CC4(F)CC(F)(CC(F)(C4)C2)C3)c1` [Compound 1, 2-Chloro-N-((3,5,7-trifluoroadamantan-1-yl)methyl)-5-methoxybenzamide], in test [1] (STEMI patients' PBMCs), the “secreted IL-1β after ATP stimulation, STEMI PBMCs” value turned out to be 13.9±2.4. Further, the “secreted IL-1β after ATP stimulation, control PBMCs” value in test [1] (healthy controls' PBMCs) is given as 7.5±2.8. For the same molecule, the EC50 in test [2] was 8.53 nM. The IC50 on mP2X7R is 158 ± 44 nM.
Regarding `COc1ccc(Cl)c(C(=O)NCC23CC4CC(F)(CC(F)(C4)C2)C3)c1` [Compound 2, 2-Chloro-N-((3,5-difluoroadamantan-1-yl)methyl)-5-methoxybenzamide], the IC50 on mP2X7R stood at 575 ± 108 nM.
On the same count and under the same terms, in the case of `COc1ccc(Cl)c(C(=O)NCC23CC4CC(CC(F)(C4)C2)C3)c1` [Compound 3, 2-Chloro-N-((3-fluoroadamantan-1-yl)methyl)-5-methoxybenzamide] it was 1510 ± 339 nM; in that of `COc1ccc(Cl)c(C(=O)NCC23CC4CC(CC(C4)C2)C3)c1` [Compound 31, reference compound], 1900 ± 905 nM.
